The numbers were not newly measured in patent publication EP2933251A1, “PHARMACEUTICAL COMPOSITION USABLE FOR THE TREATMENT OF A PATHOLOGY OF THE FOOT OF A HOOFED MAMMAL” (Weyts, Peter, priority 2014, dated 2015), which cites them from elsewhere.

The subject of the data set is vaisseaux sanguins du sabot du cheval. The conditions noted are these: as stated in WO 2006/100468 A1.

With `CC(=O)N[C@@H](CS)C(=O)O` [N-acétylcystéine], the “contraction des vaisseaux sanguins du sabot du cheval” value is recorded as “permet de réduire la contraction des vaisseaux sanguins du sabot du cheval”.
